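These data come from cells grown in 96-well plates and exposed to compound for 48 hours at five concentrations. TGI denotes the concentration required for complete inhibition of growth.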
Experiments:
Experiment in all cases: inhibition of tumour cell growth, NCI panel, 48 h
SW-620 colon = tested on: SW-620 colon
SNB-19 CNS = tested on: SNB-19 CNS
A549 NSCLC = tested on: A549 NSCLC
SF-539 CNS = tested on: SF-539 CNS
KM12 colon = tested on: KM12 colon
HCC-2998 colon = tested on: HCC-2998 colon
OVCAR-5 ovarian = tested on: OVCAR-5 ovarian
PC-3 prostate = tested on: PC-3 prostate
MALME-3M melanoma = tested on: MALME-3M melanoma
UO-31 renal = tested on: UO-31 renal
EKVX NSCLC = tested on: EKVX NSCLC
HT29 colon = tested on: HT29 colon
CAKI-1 renal = tested on: CAKI-1 renal
SK-MEL-2 melanoma = tested on: SK-MEL-2 melanoma
SR leukemia = tested on: SR leukemia
MCF7 breast = tested on: MCF7 breast
COLO 205 colon = tested on: COLO 205 colon
MDA-MB-435 = tested on: MDA-MB-435
A498 renal = tested on: A498 renal
ACHN renal = tested on: ACHN renal
K-562 leukemia = tested on: K-562 leukemia
OVCAR-3 ovarian = tested on: OVCAR-3 ovarian
786-0 renal = tested on: 786-0 renal
RPMI-8226 leukemia = tested on: RPMI-8226 leukemia
SK-MEL-28 melanoma = tested on: SK-MEL-28 melanoma
MOLT-4 leukemia = tested on: MOLT-4 leukemia
HCT-116 colon = tested on: HCT-116 colon
SF-295 CNS = tested on: SF-295 CNS
OVCAR-8 ovarian = tested on: OVCAR-8 ovarian
LOX IMVI melanoma = tested on: LOX IMVI melanoma
SK-MEL-5 melanoma = tested on: SK-MEL-5 melanoma
M14 melanoma = tested on: M14 melanoma
HS 578T breast = tested on: HS 578T breast
HOP-62 NSCLC = tested on: HOP-62 NSCLC
SF-268 CNS = tested on: SF-268 CNS
MDA-N = tested on: MDA-N
CCRF-CEM leukemia = tested on: CCRF-CEM leukemia
UACC-257 melanoma = tested on: UACC-257 melanoma
HL-60(TB) leukemia = tested on: HL-60(TB) leukemia
NCI-H522 lung = tested on: NCI-H522 lung
NCI/ADR-RES ovarian = tested on: NCI/ADR-RES ovarian
BT-549 breast = tested on: BT-549 breast
UACC-62 melanoma = tested on: UACC-62 melanoma
HCT-15 colon = tested on: HCT-15 colon
U251 CNS = tested on: U251 CNS
NCI-H460 lung = tested on: NCI-H460 lung
SK-OV-3 ovarian = tested on: SK-OV-3 ovarian
NCI-H23 lung = tested on: NCI-H23 lung
OVCAR-4 ovarian = tested on: OVCAR-4 ovarian
IGROV1 ovarian = tested on: IGROV1 ovarian
DU-145 prostate = tested on: DU-145 prostate
TK-10 renal = tested on: TK-10 renal
SNB-75 CNS = tested on: SNB-75 CNS
RXF 393 renal = tested on: RXF 393 renal
MDA-MB-231 breast = tested on: MDA-MB-231 breast
SN12C renal = tested on: SN12C renal
NCI-H226 lung = tested on: NCI-H226 lung
HOP-92 NSCLC = tested on: HOP-92 NSCLC

SMILES: CCN(CC)c1ccc2cc(-c3nc(-c4ccccc4)n[nH]3)c(=O)oc2c1
- TGI (SW-620 colon): > 100 µM
- TGI (SNB-19 CNS): 61.5 µM
- TGI (A549 NSCLC): > 100 µM
- TGI (SF-539 CNS): 45.6 µM
- TGI (KM12 colon): > 100 µM
- TGI (HCC-2998 colon): > 100 µM
- TGI (OVCAR-5 ovarian): > 100 µM
- TGI (PC-3 prostate): 70.1 µM
- TGI (MALME-3M melanoma): > 100 µM
- TGI (UO-31 renal): 20.4 µM
- TGI (EKVX NSCLC): 88.7 µM
- TGI (HT29 colon): > 100 µM
- TGI (CAKI-1 renal): 73.8 µM
- TGI (SK-MEL-2 melanoma): > 100 µM
- TGI (SR leukemia): > 100 µM
- TGI (MCF7 breast): > 100 µM
- TGI (COLO 205 colon): > 100 µM
- TGI (MDA-MB-435): > 100 µM
- TGI (A498 renal): 90.1 µM
- TGI (ACHN renal): > 100 µM
- TGI (K-562 leukemia): > 100 µM
- TGI (OVCAR-3 ovarian): > 100 µM
- TGI (786-0 renal): 32.1 µM
- TGI (RPMI-8226 leukemia): > 100 µM
- TGI (SK-MEL-28 melanoma): > 100 µM
- TGI (MOLT-4 leukemia): > 100 µM
- TGI (HCT-116 colon): > 100 µM
- TGI (SF-295 CNS): > 100 µM
- TGI (OVCAR-8 ovarian): 28.7 µM
- TGI (LOX IMVI melanoma): > 100 µM
- TGI (SK-MEL-5 melanoma): > 100 µM
- TGI (M14 melanoma): > 100 µM
- TGI (HS 578T breast): > 100 µM
- TGI (HOP-62 NSCLC): 22 µM
- TGI (SF-268 CNS): > 100 µM
- TGI (MDA-N): > 100 µM
- TGI (CCRF-CEM leukemia): > 100 µM
- TGI (UACC-257 melanoma): > 100 µM
- TGI (HL-60(TB) leukemia): > 100 µM
- TGI (NCI-H522 lung): > 100 µM
- TGI (NCI/ADR-RES ovarian): > 100 µM
- TGI (BT-549 breast): 89.3 µM
- TGI (UACC-62 melanoma): > 100 µM
- TGI (HCT-15 colon): > 100 µM
- TGI (U251 CNS): 96.2 µM
- TGI (NCI-H460 lung): > 100 µM
- TGI (SK-OV-3 ovarian): 39.4 µM
- TGI (NCI-H23 lung): 44.6 µM
- TGI (OVCAR-4 ovarian): 53.7 µM
- TGI (IGROV1 ovarian): 57.9 µM
- TGI (DU-145 prostate): 40.4 µM

SMILES: CCCCNc1nc(N)nc(Nc2ccc(Br)cc2)c1N=O
- TGI (SW-620 colon): > 100 µM
- TGI (SNB-19 CNS): > 100 µM
- TGI (TK-10 renal): > 100 µM
- TGI (A549 NSCLC): > 100 µM
- TGI (SF-539 CNS): > 100 µM
- TGI (KM12 colon): > 100 µM
- TGI (SNB-75 CNS): > 100 µM
- TGI (HCC-2998 colon): > 100 µM
- TGI (OVCAR-5 ovarian): > 100 µM
- TGI (PC-3 prostate): > 100 µM
- TGI (MALME-3M melanoma): > 100 µM
- TGI (UO-31 renal): > 100 µM
- TGI (EKVX NSCLC): > 100 µM
- TGI (HT29 colon): > 100 µM
- TGI (RXF 393 renal): > 100 µM
- TGI (SK-MEL-2 melanoma): > 100 µM
- TGI (SR leukemia): > 100 µM
- TGI (MCF7 breast): > 100 µM
- TGI (COLO 205 colon): > 100 µM
- TGI (MDA-MB-435): > 100 µM
- TGI (ACHN renal): > 100 µM
- TGI (K-562 leukemia): > 100 µM
- TGI (MDA-MB-231 breast): > 100 µM
- TGI (OVCAR-3 ovarian): > 100 µM
- TGI (786-0 renal): > 100 µM
- TGI (RPMI-8226 leukemia): > 100 µM
- TGI (SK-MEL-28 melanoma): > 100 µM
- TGI (MOLT-4 leukemia): > 100 µM
- TGI (HCT-116 colon): > 100 µM
- TGI (OVCAR-8 ovarian): > 100 µM
- TGI (LOX IMVI melanoma): > 100 µM
- TGI (SK-MEL-5 melanoma): > 100 µM
- TGI (M14 melanoma): > 100 µM
- TGI (HS 578T breast): 82.8 µM
- TGI (HOP-62 NSCLC): > 100 µM
- TGI (SF-268 CNS): > 100 µM
- TGI (MDA-N): > 100 µM
- TGI (CCRF-CEM leukemia): > 100 µM
- TGI (SN12C renal): > 100 µM
- TGI (UACC-257 melanoma): > 100 µM
- TGI (HL-60(TB) leukemia): > 100 µM
- TGI (NCI-H522 lung): > 100 µM
- TGI (NCI/ADR-RES ovarian): > 100 µM
- TGI (BT-549 breast): > 100 µM
- TGI (UACC-62 melanoma): > 100 µM
- TGI (HCT-15 colon): > 100 µM
- TGI (U251 CNS): > 100 µM
- TGI (NCI-H460 lung): > 100 µM
- TGI (NCI-H23 lung): > 100 µM
- TGI (NCI-H226 lung): > 100 µM
- TGI (IGROV1 ovarian): > 100 µM
- TGI (DU-145 prostate): > 100 µM

SMILES: O=c1[nH]c(=S)[nH]c2c1C(c1ccc(Cl)cc1)c1c([nH]c(=S)[nH]c1=O)O2
- TGI (SW-620 colon): > 100 µM
- TGI (SNB-19 CNS): > 100 µM
- TGI (TK-10 renal): > 100 µM
- TGI (A549 NSCLC): > 100 µM
- TGI (KM12 colon): > 100 µM
- TGI (OVCAR-5 ovarian): > 100 µM
- TGI (PC-3 prostate): > 100 µM
- TGI (MALME-3M melanoma): > 100 µM
- TGI (UO-31 renal): > 100 µM
- TGI (EKVX NSCLC): > 100 µM
- TGI (HT29 colon): > 100 µM
- TGI (CAKI-1 renal): > 100 µM
- TGI (RXF 393 renal): > 100 µM
- TGI (SK-MEL-2 melanoma): > 100 µM
- TGI (MCF7 breast): > 100 µM
- TGI (COLO 205 colon): > 100 µM
- TGI (MDA-MB-435): > 100 µM
- TGI (A498 renal): > 100 µM
- TGI (ACHN renal): > 100 µM
- TGI (K-562 leukemia): > 100 µM
- TGI (MDA-MB-231 breast): > 100 µM
- TGI (OVCAR-3 ovarian): > 100 µM
- TGI (786-0 renal): > 100 µM
- TGI (RPMI-8226 leukemia): > 100 µM
- TGI (SK-MEL-28 melanoma): > 100 µM
- TGI (MOLT-4 leukemia): > 100 µM
- TGI (HCT-116 colon): > 100 µM
- TGI (SF-295 CNS): > 100 µM
- TGI (OVCAR-8 ovarian): > 100 µM
- TGI (LOX IMVI melanoma): > 100 µM
- TGI (SK-MEL-5 melanoma): > 100 µM
- TGI (M14 melanoma): > 100 µM
- TGI (HS 578T breast): > 100 µM
- TGI (HOP-62 NSCLC): > 100 µM
- TGI (SF-268 CNS): > 100 µM
- TGI (MDA-N): > 100 µM
- TGI (CCRF-CEM leukemia): > 100 µM
- TGI (SN12C renal): > 100 µM
- TGI (UACC-257 melanoma): > 100 µM
- TGI (HL-60(TB) leukemia): > 100 µM
- TGI (NCI-H522 lung): > 100 µM
- TGI (NCI/ADR-RES ovarian): > 100 µM
- TGI (BT-549 breast): > 100 µM
- TGI (UACC-62 melanoma): > 100 µM
- TGI (HCT-15 colon): > 100 µM
- TGI (U251 CNS): > 100 µM
- TGI (NCI-H460 lung): > 100 µM
- TGI (NCI-H23 lung): > 100 µM
- TGI (NCI-H226 lung): > 100 µM
- TGI (HOP-92 NSCLC): > 100 µM
- TGI (OVCAR-4 ovarian): > 100 µM
- TGI (IGROV1 ovarian): > 100 µM
- TGI (DU-145 prostate): > 100 µM
